Experimental data published in patent publication US20240301003A1 (NoNO Inc., priority 2021, published 2024).
“Also recorded” adds a separate entry of the source. Where two headings read alike, the source gives them in different places. Where a SMILES comes first, the peptide text is derived from it. Where no end group is shown, it is not given here. [ ]: non-standard residue; d: D form.

Key:
[1] = target: PSD-95 PDZ domain 2 (UniProt P78352); assay: competitive ELISA on coated PSD95PDZ2, competitor biotinylated NA-1
Chain of PSD-95 PDZ domain 2 (P78352 160-246 limits assumed): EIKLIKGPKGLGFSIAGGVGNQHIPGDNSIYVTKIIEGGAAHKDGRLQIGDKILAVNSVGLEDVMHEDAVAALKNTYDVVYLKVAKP

[2] = target: T1, PSD95PDZ2 (Homo sapiens, UniProt P78352); assay: direct ELISA; biotinylated peptide (Bio-D-NA1)
Target sequence in this assay (P78352 160-246): as the sequence (P78352 160-246 limits assumed) above

[3] = rat plasma in vitro with tPA administered simultaneously
[4] = Plasma concentrations 15 minutes post subcutaneous dose (animals of the 3PVO model); assay type: in vivo, rat
Experimental: Unlike transient models of stroke in rats where much lower doses are required for neuroprotection, neuroprotection in 3 pial vessel occlusion models of stroke seems to require plasma concentrations of nerinetide at or above 2 ug/mL (or molar equivalent). […] Although the plasma levels continue to increase through about 3 hours then decrease, it is important to achieve rapid accumulation in the blood and brain for emergency indications like stroke. […] For pharmacokinetic sample analysis, calibration standard samples at concentrations of 0, 2.5, 5, 10, 15, 20 and 40 ug/mL of nerinetide were prepared by spiking 1 μL of the appropriate stock to 100 μL of plasma. […] Data is presented as mean±SD.

[5] = NA-3 pharmacokinetics after subcutaneous injection in non-human primates; assay type: in vivo, cynomolgus macaques; conditions: for plasma concentrations achieved: cynomolgus macaques
Description: All values are presented as mean±SD; Statistical significance when compared to nerinetide alone is indicated as * (one-way ANOVA with post-hoc turkey's correction, *P<0.01). (Cmax: maximum plasma concentrations based on the extrapolated time-zero value; t1/2: half-life at terminal phase; tmax: time to reach Cmax; AUC0-t: area under the concentration-time curve from 0 to the last measured value; AUC0-inf: extrapolated area under the concentration-time curve from 0 to infinity; Cl: total clearance). Data is presented as mean±SD of three-four animals per group. The (-) represent data not reported due to an extrapolation of the AUC0-inf greater than 20% and R^2 lower than 0.9.

[6] = Physiologic parameters of NHP animals post NA-3 subcutaneous dose; assay type: in vivo, cynomolgus macaques
[7] = target: T1, PSD95PDZ2; assay: Competitive ELISA with biotinylated-NA-1; conditions: for IC50's relative to each other: FIG. 11, within the margin of error
Target sequence in this assay (P78352 160-246 limits assumed): as above

[8] = test system: histamine release; assay: Histamine release in rats, plasma histamine ELISA; conditions: rats
Experimental: (§1) Histamine levels were quantified by using commercially available histamine ELISA assay kit (Histamine ELISA-H1531-K01, Eagle Bioscience). The plates were coated with the plasma samples (50 ul/well) incubated for 60 minutes at room temperature on an orbital shaker with medium frequency. Then 100 ul of enzyme conjugate was added to the wells and incubated for 20 minutes at room temperature. […] The reaction was stopped with 100 ul H2SO4. Absorbance was determined on an ELISA plate reader at 450 nm.
(§2) Blood samples were taken at pre-injection and at 0, 1, 2.5, 5, 10, 15, 30- and 60-minutes post dose and used for histamine levels quantification using commercially available kit.

[9] = MTD studies and renal toxicity in rats (creatinine, BUN)
[10] = Pharmacokinetic analysis in rats (subcutaneous, pulmonary instillation, intravenous, intramuscular), HPLC
Experimental: (§3) Rats were anaesthetized in the supine position (Isoflurane 1.5--%) and allowed to breath spontaneously in 0.5 L/min 02. The left femoral artery was cannulated for blood sampling.
(§4) Test agents were prepared at the stablish concentration in a total volume of vehicle. Pulmonary instillation was performed by intubation with a 14G catheter connected to a 1 cc syringe and the test agent will be delivered through the catheter. Subcutaneous (SQ or SC) injection was injected into the area of the left flank, no more than 2 ml of total volume per site.
(§5) Each dose was evaluated in 3 rats for each administration strategy. […] For the first experiment, evaluating two different administration routes (SQ and PI), blood samples were collected at 8 different timepoints: Pre and at 7 additional times (1, 2.5, 5, 10, 15, 30, 60 min) post dose (250 ul/sample).
(§6) HPLC quantification: Plasma was separated from blood and stored at −−−80° C. until used. […] Standard curves for HPLC were generated from plasma samples spiked with known quantities of test agent.

[11] = target: PSD-95 PDZ domain 2 (UniProt P78352); assay: competitive ELISA on coated PSD95PDZ2
[12] = test system: plasmin; assay: digested with plasmin
[13] = rat, in vivo, sc, 25 mg/kg
Experimental: as §3, §4, §5, §6

[14] = test system: histamine release; conditions: rat, in vivo, iv, 7.6 mg/kg
Experimental: as §1, §2

[15] = target: tPA (Homo sapiens, UniProt P00750)
Chain of tPA (P00750 36-562): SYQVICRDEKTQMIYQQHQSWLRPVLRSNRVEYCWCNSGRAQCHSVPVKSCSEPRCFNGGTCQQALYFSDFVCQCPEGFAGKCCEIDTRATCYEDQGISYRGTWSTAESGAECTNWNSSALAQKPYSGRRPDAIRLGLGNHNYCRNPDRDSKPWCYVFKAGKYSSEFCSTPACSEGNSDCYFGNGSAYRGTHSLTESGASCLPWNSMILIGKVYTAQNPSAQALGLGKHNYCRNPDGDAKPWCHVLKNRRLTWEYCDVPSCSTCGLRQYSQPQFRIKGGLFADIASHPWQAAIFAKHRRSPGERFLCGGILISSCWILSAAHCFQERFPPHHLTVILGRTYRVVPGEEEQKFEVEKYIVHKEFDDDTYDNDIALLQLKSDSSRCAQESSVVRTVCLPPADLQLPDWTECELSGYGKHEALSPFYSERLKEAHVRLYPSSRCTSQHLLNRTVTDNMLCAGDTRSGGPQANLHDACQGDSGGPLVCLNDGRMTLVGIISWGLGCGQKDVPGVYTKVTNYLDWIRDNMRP

[16] = target: T1, PSD95PDZ2; assay: direct ELISA; biotinylated peptide (Bio-D-Tat-L-NA1); unit printed "um"
Target sequence in this assay (P78352 160-246): as the sequence (P78352 160-246 limits assumed) above

Compound: D-TAT-L-2B9c (peptide)
- ratio of IC50 against D-Tat-L-IESDV [1]: < 2 fold

Compound: D-NA-1 NA1
- EC50 [2]: 1380 nM

Compound: yGrkkrrqrrrKLSSIESDV ([dY]G[dR][dK][dK][dR][dR][dQ][dR][dR][dR]KLSSIESDV)
- not cleaved [3]: only negligible degradation when co-administered with tPA

Compound: CC[C@H](C)[C@H](NC(=O)[C@@H](CO)NC(=O)[C@@H](CO)NC(=O)[C@@H](CC(C)C)NC(=O)[C@@H](CCCCN)NC(=O)[C@@H](CCCNC(=N)N)NC(=O)[C@@H](CCCNC(=N)N)NC(=O)[C@@H](CCCNC(=N)N)NC(=O)[C@@H](CCC(N)=O)NC(=O)[C@@H](CCCNC(=N)N)NC(=O)[C@@H](CCCNC(=N)N)NC(=O)[C@@H](CCCCN)NC(=O)[C@@H](CCCCN)NC(=O)[C@@H](CCCNC(=N)N)NC(=O)CNC(=O)[C@H](N)Cc1ccc(O)cc1)C(=O)N[C@@H](CCC(=O)O)C(=O)N[C@@H](CO)C(=O)N[C@@H](CC(=O)O)C(=O)N[C@H](C(=O)O)C(C)C [NA-3, ygrkkrrqrrrklssIESDV] (HELM PEPTIDE1{[dY].G.[dR].[dK].[dK].[dR].[dR].[dQ].[dR].[dR].[dR].[dK].[dL].[dS].[dS].I.E.S.D.V}$$$$V2.0; N-terminus and C-terminus assumed)
- plasma concentration compared to nerinetide at the same dose ([4]; 15 min post subcutaneous dose): higher concentration at 15 min post-dose
- relation between treatment dose and Cmax ([4]; single subcutaneous administration, 2.5, 7.6, 25 mg/kg): dose proportionality between the treatment dose and the Cmax
- plasma concentrations achieved ([5]; subcutaneous 7.6 mg/Kg): able to achieve plasma concentrations higher than those demonstrated to be effective in humans
- plasma concentrations achieved ([5]; subcutaneous 25 mg/kg): able to achieve plasma concentrations higher than those demonstrated to be effective in humans
- Cmax and AUC versus nerinetide IV infusion ([5]; subcutaneous 25 mg/kg): greater Cmax and AUC than nerinetide IV infusion
- drops in blood pressure compared to NA-1 [6]: No significant drops in blood pressure were observed
- safety issues in physiologic parameters compared to intravenous nerinetide [6]: no significant safety issues were identified
- IC50 [7]: < 5000 nM
- IC50's relative to each other [7]: within a factor of two of each other
- histamine release ([8]; 25 mg/kg SQ): resulted in histamine release but still much less than 7.6 mg/kg IV
- histamine release ([8]; subcutaneous 2.8 mg/kg): did not result in significant histamine release
- histamine release ([8]; subcutaneous 8.3 mg/kg): did not result in significant histamine release
- therapeutic index ([9]; minimum effective dose versus highest no observed adverse effect level): low
- creatinine and BUN values out of range ([9]; rats, subcutaneous 7.6 mg/kg or 2.6 mg/kg): No values out of range were observed
- persistence of creatinine and BUN increases ([9]; rats, subcutaneous 25 mg/kg): persisted through day 7
- creatinine and BUN (blood urea nitrogen) ([9]; rats, subcutaneous 25 mg/kg or 50 mg/kg, day 1 post dose): dose-dependent increases in creatinine and BUN
- creatinine levels on reducing the dose 2-fold ([9]; rats, subcutaneous, versus 25 mg/kg NA-3, pre and after 1 day): significant reduction of the NA-3 creatinine levels
- plasma concentration and plasma exposure relative to intrapulmonary NA-1 ([10]; pulmonary instillation): higher plasma concentration and a greater plasma exposure
- CMax after pulmonary instillation ([10]; pulmonary instillation 25 mg/kg): higher CMax than for NA-1 or D-Tat-L-2B9C
- AUC compared with subcutaneous NA-1 ([10]; subcutaneous 25 mg/kg): increased
- Cmax compared with subcutaneous NA-1 ([10]; subcutaneous 25 mg/kg): increased
- dose dependence of Cmax and AUC ([10]; subcutaneous 25, 8.3, 2.8 mg/kg): dose-dependent increasing linearly with dose

Compound: D-NA-1 (peptide)
- fold change of EC50 against NA-1 and D-Tat-L-2B9C [11]: 10 fold

Compound: YGRKKRRQRRRKLSSIESDV
- fragment found [12]: RRQRRRKLSSIESDV; also recorded: RQRRRKLSSIESDV; also recorded: QRRRKLSSIESDV; also recorded: RRKLSSIESDV; also recorded: RKLSSIESDV; also recorded: KLSSIESDV; also recorded: LSSIESDV

Compound: CC[C@H](C)[C@H](NC(=O)[C@H](CO)NC(=O)[C@H](CO)NC(=O)[C@H](CC(C)C)NC(=O)[C@H](CCCCN)NC(=O)[C@@H](CCCNC(=N)N)NC(=O)[C@@H](CCCNC(=N)N)NC(=O)[C@@H](CCCNC(=N)N)NC(=O)[C@@H](CCC(N)=O)NC(=O)[C@@H](CCCNC(=N)N)NC(=O)[C@@H](CCCNC(=N)N)NC(=O)[C@@H](CCCCN)NC(=O)[C@@H](CCCCN)NC(=O)[C@@H](CCCNC(=N)N)NC(=O)CNC(=O)[C@H](N)Cc1ccc(O)cc1)C(=O)N[C@@H](CCC(=O)O)C(=O)N[C@@H](CO)C(=O)N[C@@H](CC(=O)O)C(=O)N[C@H](C(=O)O)C(C)C [D-Tat-L-2B9C] (HELM PEPTIDE1{[dY].G.[dR].[dK].[dK].[dR].[dR].[dQ].[dR].[dR].[dR].K.L.S.S.I.E.S.D.V}$$$$V2.0; N-terminus and C-terminus assumed)
- AUC compared with subcutaneous NA-1 [13]: increased Cmax and AUC relative to subcutaneous NA-1 but not to the same extent
- Cmax compared with subcutaneous NA-1 [13]: increased Cmax and AUC relative to subcutaneous NA-1 but not to the same extent
- histamine release [14]: did result in significant histamine release
- degradation, control treatment with tPA [15]: no degradation
- IC50 [7]: < 5000 nM
- IC50's relative to each other [7]: within a factor of two of each other
- EC50 (compared between peptides) ([7]; PSD-95 domain 2, FIG. 12): about the same within experimental error
- creatinine versus the same dose level of NA-3 ([9]; rats, subcutaneous 25 mg/kg): Much less creatinine is observed

Compound: D-Tat-L-NA-1
- EC50 [16]: 139 nM
